The source of these data is patent US6376426B1, “Herbicidal 3-(heterocycl-1-yl)-uracils” (BASF Aktiengesellschaft, priority 1999, dated 2002).

Common to all, as to assay type: in vivo
One assay concerns Matricaria inodora. The assay is described as follows: Post-emergence herbicidal test, MATIN. More on the design: key to herbicidal effect (0-9 scale) MATIN / herbicidal rating MATIN: A rating 0 indicates growth as untreated control; a rating 9 indicates death. Particulars: for herbicidal rating MATIN: POST, 0-9 scale, 21 days after spraying. An outline of the steps:
(§1)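 Herbicidal effect is recorded on a linear 0-9 scale, where 0 means growth like untreated control and 9 means death, with one unit approximating 10% more effect.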

In assay [1] the test system is representative range of plants. The experiment in a line: Pre-emergence herbicidal test, summary over the plants tested. Conditions: 100 g/ha. Here is the method: (§2) To evaluate their herbicidal activity, compounds according to the invention are tested using a representative range of plants:
The pre-emergence tests involve spraying a liquid formulation of the compound onto the soil in which the seeds of the plant species mentioned above has recently been sown.
The soil used in the tests is a prepared horticultural loam. The formulations used in the tests are prepared from solutions of the test compounds in acetone containing 0.4% by weight of an alkylphenol/ethylene oxide condensate available under the trade mark TRITON X-155. […] In these tests untreated sown soil are used as controls.
(§3) The herbicidal effects of the test compounds are assessed visually twenty-one days after spraying the foliage and the soil and are recorded on a 0-9 scale. A rating 0 indicates growth as untreated control, a rating 9 indicates death. An increase of 1 unit on the linear scale approximates to a 10% increase in the level of effect.

The subject of another assay is Abutilon theophrasti. The experiment in a line: Pre-emergence herbicidal test, ABUTH. Also on record: key to herbicidal effect (0-9 scale) ABUTH / herbicidal rating ABUTH: A rating 0 indicates growth as untreated control; a rating 9 indicates death. Particulars: for herbicidal rating ABUTH: PRE, 0-9 scale, 21 days after spraying.
A further assay relates to Ipomoea hederacea. The assay is described as follows: Post-emergence herbicidal test, IPOHE. Also on record: key to herbicidal effect (0-9 scale) IPOHE / herbicidal rating IPOHE: A rating 0 indicates growth as untreated control; a rating 9 indicates death. Particulars: for herbicidal rating IPOHE: POST, 0-9 scale, 21 days after spraying. In short, it runs like this:
as §1

Assay [2] has as its system representative range of plants. The assay is described as follows: Post-emergence herbicidal test, summary over the plants tested. Conditions: 100 g/ha. The protocol: as §2
[…] After spraying, the plants are placed on greenhouse benches and are cared for in the usual manner, commensurate with conventional greenhouse practices.
as §3

For a further assay, the system named is Setaria viridis. The assay is described as follows: Pre-emergence herbicidal test, SETVI. Conditions: for herbicidal rating SETVI: PRE, 0-9 scale, 21 days after spraying. More on the design: key to herbicidal effect (0-9 scale) SETVI / herbicidal rating SETVI: A rating 0 indicates growth as untreated control; a rating 9 indicates death.
In another assay the test system is Echinochloa crus-galli. The experiment in a line: Pre-emergence herbicidal test, ECHCG. More on the design: key: A rating 0 indicates growth as untreated control; a rating 9 indicates death. Particulars: 0-9 scale, 21 days after spraying.

On to `Cn1c(C(F)(F)F)cc(=O)n(-n2ccc3c(Cl)cccc32)c1=O` [Example 169, 3-(4-Chloro-indol-1-yl)-1-methyl-6-trifluoromethylpyrimidine-2,4-dione], for which the results for the “herbicidal rating MATIN” value in the assay on Matricaria inodora (25 g/ha), in the assay with Matricaria inodora (100 g/ha) and with Matricaria inodora (400 g/ha) were 8, 9 and 9, respectively. The “control of Matricaria” value with Matricaria inodora (post-emergence, 12.5 g/ha) is “excellent control”. Besides, the “control of the weeds” value in assay [1] was “all of the weeds except Alopecurus were well controlled”; in assay [2], “good cross spectrum control on both broadleaf weeds and grasses”. Moreover, the “herbicidal rating ABUTH” value was found to be 5 in the assay with Abutilon theophrasti (12.5 g/ha), 9 with Abutilon theophrasti (25 g/ha), 9 with Abutilon theophrasti (100 g/ha) and 9 in the assay on Abutilon theophrasti (400 g/ha). For the same compound, the “control of Abutilon” value in the assay with Abutilon theophrasti (pre-emergence, 25 g/ha) was “good control”. Also, the “herbicidal rating IPOHE” value with Ipomoea hederacea (25 g/ha), in the assay with Ipomoea hederacea (100 g/ha) and with Ipomoea hederacea (400 g/ha) was 9 each time. Moreover, the “control of Ipomoea” value with Ipomoea hederacea (post-emergence, 12.5 g/ha) is “excellent control”. For the same compound, the “herbicidal rating SETVI” value with Setaria viridis (12.5 g/ha) was determined as 8; in the assay with Setaria viridis (25 g/ha), 9; with Setaria viridis (100 g/ha) it was 9; in the assay with Setaria viridis (400 g/ha) it was 9. For the same compound, the “control of Setaria” value in the assay on Setaria viridis (pre-emergence, 25 g/ha) is reported as “good control”. Also, the “herbicidal rating ECHCG” value with Echinochloa crus-galli (12.5 g/ha) was 4; in the assay on Echinochloa crus-galli (25 g/ha), 7; in the assay on Echinochloa crus-galli (100 g/ha), 9; in the assay on Echinochloa crus-galli (400 g/ha) it was 9.
